The assay deals with CD4+ CCR4+ T cells. As to the kind of experiment: Chemokine stimulated increases in cellular F-actin content. In kind it is cell-based. To be noted: Homo sapiens, T-cell, 0.5 h; PBMC from normal volunteers; antagonist 30 min at 37° C. before agonist for 15 sec; F-actin content by flow cytometry; read-out: pA2 (converted). The method, then: Chemokine Stimulated Increases in Cellular F-Actin Content
Blood was taken from normal volunteers who had taken no medication within the previous ten days and mixed with 1/9 of the volume of 3.8% tri-sodium citrate solution. Chemokine-induced increases in the F-actin content of CD4+ CCR4+ T cells were measured by a modification of the method of Pilette et al. (Eur. Respir. J; 23: 876-884, 2004). Peripheral blood mononuclear cells (PBMC) were isolated by dextran sedimentation followed by Percoll density gradient centrifugation. The PBMCs were incubated with FITC-conjugated anti-human CD4 and PE-conjugated anti-CCR4 antibodies or appropriate isotype controls for 15 min. The cell suspensions were then centrifuged at 400 g for 10 min and the pellets resuspended in assay buffer (phenol red-free RPMI 1640 medium containing 10 mM HEPES and 0.1% bovine serum albumin) at 10^7/mL. The resulting cell suspension was incubated with antagonist or vehicle (0.1% DMSO) for 30 min at 37° C. before stimulation with the agonist for 15 sec. The assay was terminated by addition of 3% formaldehyde. The fixed cells were washed twice with PBS (centrifuging at 1000 g for 5 min to recover the cells) and incubated at room temperature with Alexa fluor-647 phalloidin (0.075 U/mL) in the presence of lyso-phosphatidylcholine (93.75 μg/ml) for 20 min to stain F-actin. The cells were washed once more with PBS and the relative F-actin content of the cells was measured flow cytometrically. The mean fluorescence intensity of 1000 CD4^+ CCR4^+ cells per sample was determined and expressed as a fraction of the mean intensity of the CD4^+ CCR4^− cells in that sample.
For orientation: A flow cytometer gives signals particle by particle.

Where a name gives a salt, the structure may show the parent alone.

`CNCCC(=O)NCc1cccc(Cn2nc(NS(=O)(=O)c3ccc(Cl)s3)c3c(OC)cccc32)c1` [Example 29, N^1-[(3-{[3-{[(5-Chloro-2-thienyl)sulfonyl]amino}-4-(methyloxy)-1H-indazol-1-yl]methyl}phenyl)methyl]-N^3-methyl-β-alaninamide trifluoroacetate]: the Kb was at most 126 nM.
In the case of `COc1cccc2c1c(NS(=O)(=O)c1ccc(C)s1)nn2Cc1cccc(C(N)=O)c1` [Example 66, 3-[(4-(Methyloxy)-3-{[(5-methyl-2-thienyl)sulfonyl]amino}-1H-indazol-1-yl)methyl]benzamide] it was at most 126 nM.
On to `COc1ccc(Cn2nc(NS(=O)(=O)c3ccc(Cl)s3)c3c(OC)cccc32)cc1OC` [Example 53, N-[1-{[3,4-Bis(methyloxy)phenyl]methyl}-4-(methyloxy)-1H-indazol-3-yl]-5-chloro-2-thiophenesulfonamide], for which the Kb was at most 126 nM.
In the case of `COc1cccc2c1c(NS(=O)(=O)c1ccc(Cl)s1)nn2Cc1cccc(CNC=O)c1` [Example 5, 5-Chloro-N-[1-({3-[(formylamino)methyl]phenyl}methyl)-4-(methyloxy)-1H-indazol-3-yl]-2-thiophenesulfonamide] it was at most 126 nM.
With `COc1cccc2c1c(NS(=O)(=O)c1ccc(Cl)s1)nn2Cc1cccc(CNC(N)=O)c1` [Example 59, N-[1-[(3-{[(Aminocarbonyl)amino]methyl}phenyl)methyl]-4-(methyloxy)-1H-indazol-3-yl]-5-chloro-2-thiophenesulfonamide] the figure was at most 126 nM; with `COc1cccc2c1c(NS(=O)(=O)c1ccc(Cl)s1)nn2Cc1cccc(CNC(=O)[C@@H](N)CCCCN)c1` [Example 49, N^1-[(3-{[3-{[(5-Chloro-2-thienyl)sulfonyl]amino}-4-(methyloxy)-1H-indazol-1-yl]methyl}phenyl)methyl]-L-lysinamide], at most 126 nM.
With `COc1cccc2c1c(NS(=O)(=O)c1ccc(Cl)s1)nn2Cc1cccc(CNC(=O)CC(C)N)c1` (centres unmarked) [Example 25, 3-Amino-N-[(3-{[3-{[(5-chloro-2-thienyl)sulfonyl]amino}-4-(methyloxy)-1H-indazol-1-yl]methyl}phenyl)methyl]butanamide trifluoroacetate] the figure was at most 126 nM; with `COc1cccc2c1c(NS(=O)(=O)c1ccc(Cl)s1)nn2Cc1cccc(CNC(=O)C2(C)CCCCN2)c1` (centres unmarked) [Example 14, N-[(3-{[3-{[(5-chloro-2-thienyl)sulfonyl]amino}-4-(methyloxy)-1H-indazol-1-yl]methyl}phenyl)methyl]-2-methyl-2-piperidinecarboxamide], at most 126 nM.
With `CNC(=O)Cc1cccc(Cn2nc(NS(=O)(=O)c3ccc(Cl)s3)c3c(OC)cccc32)c1` [Example 63, 2-(3-{[3-{[(5-Chloro-2-thienyl)sulfonyl]amino}-4-(methyloxy)-1H-indazol-1-yl]methyl}phenyl)-N-methylacetamide], the Kb is at most 126 nM.
On to `COc1cccc2c1c(NS(=O)(=O)c1ccc(Cl)s1)nn2Cc1cccc(CNC(=O)c2cnco2)c1` [Example 38, N-[(3-{[3-{[(5-Chloro-2-thienyl)sulfonyl]amino}-4-(methyloxy)-1H-indazol-1-yl]methyl}phenyl)methyl]-1,3-oxazole-5-carboxamide], for which the Kb is at most 126 nM.
As to `COc1cccc2c1c(NS(=O)(=O)c1ccc(Cl)s1)nn2Cc1cccc(CNC(=O)C(C)(C)N(C)C)c1` [Example 34, N^1-[(3-{[3-{[(5-Chloro-2-thienyl)sulfonyl]amino}-4-(methyloxy)-1H-indazol-1-yl]methyl}phenyl)methyl]-N^2,N^2,2-trimethylalaninamide trifluoroacetate], the Kb was at most 126 nM.
With `COc1cccc2c1c(NS(=O)(=O)c1ccc(Cl)s1)nn2Cc1cccc(CNS(C)(=O)=O)c1` [Example 58, 5-Chloro-N-{4-(methyloxy)-1-[(3-{[(methylsulfonyl)amino]methyl}phenyl)methyl]-1H-indazol-3-yl}-2-thiophenesulfonamide] the figure was at most 126 nM; with `CC[C@H](C)[C@@H](N)C(=O)NCc1cccc(Cn2nc(NS(=O)(=O)c3ccc(Cl)s3)c3c(OC)cccc32)c1` [Example 46, N^1-[(3-{[3-{[(5-Chloro-2-thienyl)sulfonyl]amino}-4-(methyloxy)-1H-indazol-1-yl]methyl}phenyl)methyl]-D-alloisoleucinamide], at most 126 nM; with `COC(=O)[C@@H](N)CC(=O)NCc1cccc(Cn2nc(NS(=O)(=O)c3ccc(Cl)s3)c3c(OC)cccc32)c1` [Example 23, Methyl N^4-[(3-{[3-{[(5-chloro-2-thienyl)sulfonyl]amino}-4-(methyloxy)-1H-indazol-1-yl]methyl}phenyl)methyl]asparaginate trifluoroacetate], at most 126 nM.
`COc1cccc2c1c(NS(=O)(=O)c1ccc(Cl)s1)nn2Cc1cccc(C(N)=O)c1` [Example 64, 3-{[3-{[(5-Chloro-2-thienyl)sulfonyl]amino}-4-(methyloxy)-1H-indazol-1-yl]methyl}benzamide]: the Kb was at most 126 nM.
With `COc1cccc2c1c(NS(=O)(=O)c1ccc(Cl)s1)nn2Cc1cccc(CNC(=O)[C@@H]2CCCN2C)c1` [Example 39, N-[(3-{[3-{[(5-Chloro-2-thienyl)sulfonyl]amino}-4-(methyloxy)-1H-indazol-1-yl]methyl}phenyl)methyl]-methyl-L-prolinamide trifluoroacetate], the Kb was at most 126 nM.
With `COC[C@H](N)C(=O)NCc1cccc(Cn2nc(NS(=O)(=O)c3ccc(Cl)s3)c3c(OC)cccc32)c1` [Example 54, N^1-[(3-{[3-{[(5-Chloro-2-thienyl)sulfonyl]amino}-4-(methyloxy)-1H-indazol-1-yl]methyl}phenyl)methyl]-O-methylserinamide trifluoroacetate] the figure was at most 126 nM; with `COc1cccc2c1c(NS(=O)(=O)c1ccc(Cl)s1)nn2Cc1cccc(CNC(=O)C2COCCN2C)c1` (centres unmarked) [Example 96, N-[(3-{[3-{[(5-Chloro-2-thienyl)sulfonyl]amino}-4-(methyloxy)-1H-indazol-1-yl]methyl}phenyl)methyl]-4-methyl-3-morpholinecarboxamide], at most 126 nM.
With `COc1cccc2c1c(NS(=O)(=O)c1ccc(Cl)s1)nn2Cc1cccc(CNC(=O)[C@H]2CCCN2C)c1` [Example 40, N-[(3-{[3-{[(5-Chloro-2-thienyl)sulfonyl]amino}-4-(methyloxy)-1H-indazol-1-yl]methyl}phenyl)methyl]-1-methyl-D-prolinamide trifluoroacetate] the figure was at most 126 nM; with `COc1cccc2c1c(NS(=O)(=O)c1ccc(Cl)s1)nn2Cc1ccc(S(N)(=O)=O)cc1` [Example 62, N-[1-{[4-(Aminosulfonyl)phenyl]methyl}-4-(methyloxy)-1H-indazol-3-yl]-5-chloro-2-thiophenesulfonamide], at most 126 nM; with `O=C(NCc1cccc(Cn2nc(NS(=O)(=O)c3ccc(Cl)s3)c3c(O)cccc32)c1)[C@H]1COCCN1` [Example 111, (3R)—N-({3-[(3-{[(5-chloro-2-thienyl)sulfonyl]amino}-4-hydroxy-1H-indazol-1-yl)methyl]phenyl}methyl)-3-morpholinecarboxamide formate salt], at most 126 nM.
Turning to `COc1cccc2c1c(NS(=O)(=O)c1ccc(Cl)s1)nn2Cc1cccc(CNC(C)=O)c1` [Example 1, N-[(3-{[3-{[(5-Chloro-2-thienyl)sulfonyl]amino}-4-(methyloxy)-1H-indazol-1-yl]methyl}phenyl)methyl]acetamide], the Kb is at most 126 nM.
With `CNCC(=O)NCc1cccc(Cn2nc(NS(=O)(=O)c3ccc(Cl)s3)c3c(O)cccc32)c1` [Example 112, N^1-({3-[(3-{[(5-chloro-2-thienyl)sulfonyl]amino}-4-hydroxy-1H-indazol-1-yl)methyl]phenyl}methyl)-N^2-methylglycinamide formate salt] the figure was at most 126 nM; with `CNCC(=O)NCc1cccc(Cn2nc(NS(=O)(=O)c3ccc(Cl)s3)c3c(OC)cccc32)c1` [Example 12, N^1-[(3-{[3-{[(5-chloro-2-thienyl)sulfonyl]amino}-4-(methyloxy)-1H-indazol-1-yl]methyl}phenyl)methyl]-N^2-methylglycinamide hydrochloride], at most 126 nM.
In the case of `COc1cccc2c1c(NS(=O)(=O)c1ccc(Cl)s1)nn2Cc1cccc(S(N)(=O)=O)c1` [Example 77, N-[1-{[3-(aminosulfonyl)phenyl]methyl}-4-(methyloxy)-1H-indazol-3-yl]-5-chloro-2-thiophenesulfonamide] it was at most 126 nM; in that of `COc1cccc2c1c(NS(=O)(=O)c1ccc(Cl)s1)nn2Cc1cccc(CNC(=O)[C@H]2CCN2)c1` [Example 50, (2R)—N-[(3-{[3-{[(5-Chloro-2-thienyl)sulfonyl]amino}-4-(methyloxy)-1H-indazol-1-yl]methyl}phenyl)methyl]-2-azetidinecarboxamide trifluoroacetate], at most 126 nM.

For the origin of these results see patent US8304446B2, “Compounds” (Glaxo Group Limited, priority 2009, dated 2012).
